The source of these data is publication PMC4685510, “A Cell Biologist’s Field Guide to Aurora Kinase Inhibitors” (Frontiers in Oncology, 2015).

What all share (assay): biochemical
Holding throughout (format): biochemical

Assay [1] has as its target 363 human kinases (including Aurora A/B/C) (Homo sapiens, UniProt Q13555). Particulars: CAMK2g, [ATP] 2.5 µM; for remaining activity at 0.5 µM / remaining activity at 0.1 µM: read-out: % Enzyme Activity (relative to DMSO controls); for remaining activity at 0.1 µM: 100 nM.
From the text: (§1) However, the Aurora A/B selectivity ratios derived from our in vitro and in vivo data can be compared to prioritize inhibitors.
Assay [2] deals with 363 human kinases (including Aurora A/B/C) (Homo sapiens, UniProt O43353). The conditions noted are these: RIPK2; for remaining activity at 0.5 µM / remaining activity at 0.1 µM: read-out: % Enzyme Activity (relative to DMSO controls); for remaining activity at 0.1 µM: 100 nM.
Sequence of 363 human kinases (including Aurora A/B/C) (Homo sapiens, UniProt O43353) (O43353 whole entry): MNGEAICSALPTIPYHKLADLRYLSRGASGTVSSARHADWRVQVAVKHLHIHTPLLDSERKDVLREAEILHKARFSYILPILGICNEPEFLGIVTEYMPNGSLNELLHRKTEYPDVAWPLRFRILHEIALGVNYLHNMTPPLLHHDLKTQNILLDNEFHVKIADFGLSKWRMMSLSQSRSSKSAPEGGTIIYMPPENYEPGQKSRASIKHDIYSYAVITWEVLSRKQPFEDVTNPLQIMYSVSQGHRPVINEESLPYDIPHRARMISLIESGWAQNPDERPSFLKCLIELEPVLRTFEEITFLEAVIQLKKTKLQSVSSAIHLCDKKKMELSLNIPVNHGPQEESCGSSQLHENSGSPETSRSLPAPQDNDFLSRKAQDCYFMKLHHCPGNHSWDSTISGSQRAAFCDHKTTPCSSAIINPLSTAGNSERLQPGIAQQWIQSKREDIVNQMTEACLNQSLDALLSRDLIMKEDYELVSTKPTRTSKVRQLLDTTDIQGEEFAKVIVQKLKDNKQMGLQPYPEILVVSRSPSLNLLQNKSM
From the text: as §1
Assay [3] deals with 363 human kinases (including Aurora A/B/C) (Homo sapiens, UniProt Q9Y2K2). Particulars: SIK3; for remaining activity at 0.5 µM / remaining activity at 0.1 µM: read-out: % Enzyme Activity (relative to DMSO controls); for remaining activity at 0.1 µM: 100 nM.
Sequence of 363 human kinases (including Aurora A/B/C) (Homo sapiens, UniProt Q9Y2K2) (Q9Y2K2 whole entry): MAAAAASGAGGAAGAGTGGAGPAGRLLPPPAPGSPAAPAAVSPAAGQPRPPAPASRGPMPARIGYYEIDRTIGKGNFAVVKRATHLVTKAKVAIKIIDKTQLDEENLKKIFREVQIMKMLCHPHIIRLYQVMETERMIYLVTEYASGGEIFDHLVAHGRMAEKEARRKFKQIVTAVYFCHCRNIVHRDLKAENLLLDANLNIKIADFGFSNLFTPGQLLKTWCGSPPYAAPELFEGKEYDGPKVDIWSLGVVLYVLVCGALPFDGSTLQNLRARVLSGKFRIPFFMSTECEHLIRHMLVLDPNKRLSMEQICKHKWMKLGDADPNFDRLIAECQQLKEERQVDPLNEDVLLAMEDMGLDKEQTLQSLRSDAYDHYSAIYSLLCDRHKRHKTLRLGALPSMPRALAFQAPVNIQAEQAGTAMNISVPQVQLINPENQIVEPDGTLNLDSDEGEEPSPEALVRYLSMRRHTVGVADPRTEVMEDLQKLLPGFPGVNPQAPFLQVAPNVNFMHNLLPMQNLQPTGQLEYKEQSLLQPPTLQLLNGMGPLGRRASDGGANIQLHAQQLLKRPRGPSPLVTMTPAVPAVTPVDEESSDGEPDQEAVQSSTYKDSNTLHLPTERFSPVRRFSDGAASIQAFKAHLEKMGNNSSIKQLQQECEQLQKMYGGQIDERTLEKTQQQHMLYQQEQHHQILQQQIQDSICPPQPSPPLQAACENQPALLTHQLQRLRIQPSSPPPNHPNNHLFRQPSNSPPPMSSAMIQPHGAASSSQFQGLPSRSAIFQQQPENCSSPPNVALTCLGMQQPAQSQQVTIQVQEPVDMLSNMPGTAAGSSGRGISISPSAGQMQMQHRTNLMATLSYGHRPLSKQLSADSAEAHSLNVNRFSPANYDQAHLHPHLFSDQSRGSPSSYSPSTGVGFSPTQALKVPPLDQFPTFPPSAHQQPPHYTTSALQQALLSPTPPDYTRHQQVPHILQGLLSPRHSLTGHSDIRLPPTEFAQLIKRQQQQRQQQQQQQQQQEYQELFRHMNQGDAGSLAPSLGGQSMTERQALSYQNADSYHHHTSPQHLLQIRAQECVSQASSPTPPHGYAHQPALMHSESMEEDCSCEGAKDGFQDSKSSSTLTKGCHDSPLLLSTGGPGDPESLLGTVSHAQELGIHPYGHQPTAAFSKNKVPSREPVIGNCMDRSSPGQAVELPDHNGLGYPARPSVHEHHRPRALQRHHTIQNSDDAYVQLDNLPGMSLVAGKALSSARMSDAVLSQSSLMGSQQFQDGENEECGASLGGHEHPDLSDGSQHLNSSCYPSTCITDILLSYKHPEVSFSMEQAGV
From the text: as §1
In assay [4] the target is T1, 363 human kinases (including Aurora A/B/C) (Homo sapiens, UniProt P54760).
T1 sequence (P54760 16-987): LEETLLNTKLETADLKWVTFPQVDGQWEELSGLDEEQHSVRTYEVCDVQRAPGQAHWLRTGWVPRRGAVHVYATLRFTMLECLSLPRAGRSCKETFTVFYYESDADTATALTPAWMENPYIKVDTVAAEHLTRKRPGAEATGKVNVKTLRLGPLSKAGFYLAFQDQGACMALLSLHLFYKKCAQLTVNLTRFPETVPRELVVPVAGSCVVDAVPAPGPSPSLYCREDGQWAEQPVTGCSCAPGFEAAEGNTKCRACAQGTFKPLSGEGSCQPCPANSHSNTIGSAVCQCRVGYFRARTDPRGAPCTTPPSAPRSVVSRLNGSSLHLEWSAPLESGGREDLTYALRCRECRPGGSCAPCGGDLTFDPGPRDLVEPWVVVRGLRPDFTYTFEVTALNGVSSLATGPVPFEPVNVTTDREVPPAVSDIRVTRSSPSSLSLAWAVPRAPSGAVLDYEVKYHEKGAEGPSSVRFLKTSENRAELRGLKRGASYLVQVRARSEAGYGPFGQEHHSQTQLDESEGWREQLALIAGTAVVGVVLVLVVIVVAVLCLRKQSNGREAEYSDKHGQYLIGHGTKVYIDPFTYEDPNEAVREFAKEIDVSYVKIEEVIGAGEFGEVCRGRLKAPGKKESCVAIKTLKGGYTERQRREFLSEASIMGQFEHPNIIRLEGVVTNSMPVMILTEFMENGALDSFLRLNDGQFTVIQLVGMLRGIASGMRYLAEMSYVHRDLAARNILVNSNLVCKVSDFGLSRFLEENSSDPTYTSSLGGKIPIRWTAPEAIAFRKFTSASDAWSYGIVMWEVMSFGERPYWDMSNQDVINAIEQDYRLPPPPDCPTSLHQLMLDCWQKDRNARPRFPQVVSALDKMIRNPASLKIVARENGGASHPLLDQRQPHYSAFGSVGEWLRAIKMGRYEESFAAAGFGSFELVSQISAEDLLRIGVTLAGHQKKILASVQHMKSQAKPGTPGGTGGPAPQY
The conditions noted are these: EPHB4, [ATP] 20 µM; for remaining activity at 0.5 µM / remaining activity at 0.1 µM: read-out: % Enzyme Activity (relative to DMSO controls); for remaining activity at 0.1 µM: 100 nM.
From the text: as §1

Assay [5] concerns the target T2, 363 human kinases (including Aurora A/B/C) (Homo sapiens, UniProt P42681).
T2 sequence (P42681 1-527): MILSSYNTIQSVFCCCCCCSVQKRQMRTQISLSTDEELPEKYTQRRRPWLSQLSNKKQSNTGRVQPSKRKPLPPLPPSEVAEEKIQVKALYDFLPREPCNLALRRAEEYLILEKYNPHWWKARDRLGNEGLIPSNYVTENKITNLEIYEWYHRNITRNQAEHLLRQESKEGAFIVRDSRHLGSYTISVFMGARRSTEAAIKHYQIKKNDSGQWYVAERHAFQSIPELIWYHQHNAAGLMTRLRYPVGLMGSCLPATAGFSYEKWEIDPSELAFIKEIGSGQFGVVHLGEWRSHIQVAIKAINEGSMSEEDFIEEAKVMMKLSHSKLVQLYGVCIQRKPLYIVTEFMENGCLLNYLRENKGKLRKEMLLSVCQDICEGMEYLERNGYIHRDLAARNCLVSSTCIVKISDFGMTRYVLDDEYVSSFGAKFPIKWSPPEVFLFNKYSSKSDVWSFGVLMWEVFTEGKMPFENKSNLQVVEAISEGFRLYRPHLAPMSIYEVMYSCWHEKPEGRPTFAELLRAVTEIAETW
Particulars: TXK; for remaining activity at 0.5 µM / remaining activity at 0.1 µM: read-out: % Enzyme Activity (relative to DMSO controls); for remaining activity at 0.1 µM: 100 nM.
From the text: as §1

Assay [6] has as its target T3, 363 human kinases (including Aurora A/B/C) (Homo sapiens, UniProt Q13976).
T3 sequence (Q13976 1-671): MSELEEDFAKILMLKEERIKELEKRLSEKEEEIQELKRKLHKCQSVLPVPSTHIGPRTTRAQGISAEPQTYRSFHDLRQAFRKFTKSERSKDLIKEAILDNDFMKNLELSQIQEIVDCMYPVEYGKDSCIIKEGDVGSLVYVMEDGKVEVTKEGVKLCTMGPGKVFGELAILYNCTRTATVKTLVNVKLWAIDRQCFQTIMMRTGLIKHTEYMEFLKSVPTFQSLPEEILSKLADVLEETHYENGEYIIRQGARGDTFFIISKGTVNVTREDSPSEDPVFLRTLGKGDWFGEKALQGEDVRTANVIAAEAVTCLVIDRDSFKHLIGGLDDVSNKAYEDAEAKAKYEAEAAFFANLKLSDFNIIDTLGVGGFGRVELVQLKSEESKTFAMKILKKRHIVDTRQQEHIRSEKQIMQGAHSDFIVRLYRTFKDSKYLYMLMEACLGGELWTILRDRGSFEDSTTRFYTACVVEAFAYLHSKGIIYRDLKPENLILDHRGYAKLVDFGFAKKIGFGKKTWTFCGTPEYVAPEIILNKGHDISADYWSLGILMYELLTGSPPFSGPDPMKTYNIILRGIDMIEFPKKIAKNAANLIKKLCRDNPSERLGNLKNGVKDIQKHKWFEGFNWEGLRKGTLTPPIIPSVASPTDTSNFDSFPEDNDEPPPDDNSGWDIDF
Particulars: PKG1a; for remaining activity at 0.1 µM: 100 nM.
From the text: as §1

For assay [7], the target named is 363 human kinases (including Aurora A/B/C) (Homo sapiens, UniProt Q8NEV4). The conditions noted are these: MYO3A; for remaining activity at 0.5 µM / remaining activity at 0.1 µM: read-out: % Enzyme Activity (relative to DMSO controls); for remaining activity at 0.1 µM: 100 nM.
Sequence of 363 human kinases (including Aurora A/B/C) (Homo sapiens, UniProt Q8NEV4) (Q8NEV4 whole entry): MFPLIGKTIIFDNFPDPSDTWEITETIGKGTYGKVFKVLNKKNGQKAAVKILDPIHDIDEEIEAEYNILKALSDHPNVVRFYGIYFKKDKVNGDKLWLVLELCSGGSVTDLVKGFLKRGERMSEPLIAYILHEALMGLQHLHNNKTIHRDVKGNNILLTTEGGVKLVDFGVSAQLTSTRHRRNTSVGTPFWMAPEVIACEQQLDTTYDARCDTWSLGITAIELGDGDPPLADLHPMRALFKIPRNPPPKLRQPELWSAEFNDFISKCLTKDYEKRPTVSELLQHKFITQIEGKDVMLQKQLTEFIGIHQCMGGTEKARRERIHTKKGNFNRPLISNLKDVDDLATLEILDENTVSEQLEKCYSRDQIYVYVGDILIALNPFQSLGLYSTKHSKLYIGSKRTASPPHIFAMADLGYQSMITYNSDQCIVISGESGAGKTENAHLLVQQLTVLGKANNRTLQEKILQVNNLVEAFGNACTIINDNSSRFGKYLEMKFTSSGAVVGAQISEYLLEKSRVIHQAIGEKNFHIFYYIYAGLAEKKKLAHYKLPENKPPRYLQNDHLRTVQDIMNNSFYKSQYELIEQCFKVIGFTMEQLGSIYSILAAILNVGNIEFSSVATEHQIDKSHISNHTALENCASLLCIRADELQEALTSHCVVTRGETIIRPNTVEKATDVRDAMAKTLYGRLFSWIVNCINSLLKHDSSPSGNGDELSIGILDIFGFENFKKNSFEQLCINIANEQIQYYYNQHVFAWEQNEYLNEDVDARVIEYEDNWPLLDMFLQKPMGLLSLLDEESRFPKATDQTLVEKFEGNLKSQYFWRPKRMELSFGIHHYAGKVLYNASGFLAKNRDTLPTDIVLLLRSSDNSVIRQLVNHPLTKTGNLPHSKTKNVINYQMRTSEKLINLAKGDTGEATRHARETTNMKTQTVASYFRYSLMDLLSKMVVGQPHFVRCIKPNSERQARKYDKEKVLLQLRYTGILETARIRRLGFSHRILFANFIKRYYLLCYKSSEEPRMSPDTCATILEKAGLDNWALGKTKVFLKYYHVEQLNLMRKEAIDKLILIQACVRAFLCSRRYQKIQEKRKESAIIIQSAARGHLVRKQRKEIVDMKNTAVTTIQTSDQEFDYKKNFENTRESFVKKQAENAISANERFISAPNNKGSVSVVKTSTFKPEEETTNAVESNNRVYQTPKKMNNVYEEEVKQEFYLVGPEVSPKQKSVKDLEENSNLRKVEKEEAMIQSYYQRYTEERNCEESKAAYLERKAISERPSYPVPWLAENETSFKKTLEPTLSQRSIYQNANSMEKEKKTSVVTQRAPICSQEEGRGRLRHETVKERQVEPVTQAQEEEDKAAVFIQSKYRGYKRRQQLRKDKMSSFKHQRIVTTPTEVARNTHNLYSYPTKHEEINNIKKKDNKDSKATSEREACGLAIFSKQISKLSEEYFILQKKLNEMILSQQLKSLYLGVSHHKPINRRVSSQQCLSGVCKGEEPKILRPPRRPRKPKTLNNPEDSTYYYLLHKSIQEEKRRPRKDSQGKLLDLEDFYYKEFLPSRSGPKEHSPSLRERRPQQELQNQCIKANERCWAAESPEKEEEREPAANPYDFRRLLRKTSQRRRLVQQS
From the text: as §1
[8] abbreviates: read-out: % Enzyme Activity (relative to DMSO controls).

Sequence of 363 human kinases (including Aurora A/B/C) (Homo sapiens, UniProt Q13555) (Q13555 whole entry): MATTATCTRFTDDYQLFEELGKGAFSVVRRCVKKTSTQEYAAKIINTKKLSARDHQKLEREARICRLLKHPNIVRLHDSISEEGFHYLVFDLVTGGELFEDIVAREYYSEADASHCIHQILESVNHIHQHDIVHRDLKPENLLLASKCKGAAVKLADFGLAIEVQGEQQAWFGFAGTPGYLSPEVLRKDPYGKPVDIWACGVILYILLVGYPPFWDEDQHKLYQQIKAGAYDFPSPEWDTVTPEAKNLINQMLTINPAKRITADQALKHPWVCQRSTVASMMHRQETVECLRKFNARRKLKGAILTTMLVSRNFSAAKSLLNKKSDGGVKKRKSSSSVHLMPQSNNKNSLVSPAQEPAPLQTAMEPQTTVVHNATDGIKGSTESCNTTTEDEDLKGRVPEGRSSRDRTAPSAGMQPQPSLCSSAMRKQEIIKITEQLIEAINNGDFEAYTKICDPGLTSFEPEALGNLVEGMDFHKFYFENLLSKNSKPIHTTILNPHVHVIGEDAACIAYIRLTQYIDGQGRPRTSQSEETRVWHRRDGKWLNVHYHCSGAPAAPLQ

Regarding `O=C(c1cccc(Cl)c1F)N1CCN(Cc2cccc(Nc3nccs3)n2)CC1` [MK-8745], the “% Enzyme Activity (relative to DMSO controls)” value in assay [1] (500 nM) stood at 92.25%; in assay [2] (500 nM) it was 82.53%; in assay [3] (500 nM), 91.26%; in assay [4] (500 nM) it was 47.01%; in assay [5] (500 nM), 80.24%; in assay [6] (500 nM), 94.34%. The “% Enzyme Activity (relative to DMSO controls)” value in assay [7] (500 nM) is given as 66.28%. Further, the remaining activity at 0.5 µM in assay [1] (500 nM) is 94.3%; in assay [2] (500 nM), 89.3%; in assay [3] (500 nM), 93.5%; in assay [4] (500 nM), 47.7%; in assay [5] (500 nM) it was 80.3%; in assay [6] (500 nM, read-out: % Enzyme Activity (relative to DMSO controls)), 95.4%. Moreover, the remaining activity at 0.5 µM in assay [7] (500 nM) was found to be 71.2%.

Regarding `CCn1cc(-c2ccnc3[nH]c(-c4cccc(CN(C)C)c4)cc23)c(-c2ccc(NC(=O)N(C)C)cc2)n1` [GSK1070916], the remaining activity at 0.1 µM stood at 94.5% in assay [1]; 116% in assay [2]; 87.8% in assay [3]; 87.9% in assay [4]; 86.3% in assay [5]; 126% in assay [6] (setting [8]). Also, the remaining activity at 0.1 µM in assay [7] was determined as 92.9%.

Turning to `O=C(O)[C@]1(Cc2cccc(Nc3nccs3)n2)CC[C@@H](Oc2cccc(Cl)c2F)CC1` [MK-5108], the remaining activity at 0.1 µM in assay [1] was found to be 91.1%; in assay [2], 89.1%; in assay [3], 97.3%; in assay [4], 29.5%; in assay [5], 35.6%; in assay [6] (setting [8]) it was 122%. The remaining activity at 0.1 µM in assay [7] is 90.8%. Also, the remaining activity at 0.5 µM in assay [1] (500 nM) came to 94.4%; in assay [2] (500 nM), 60%; in assay [3] (500 nM) it was 103%; in assay [4] (500 nM), 5.58%; in assay [5] (500 nM) it was 10.5%; in assay [7] (500 nM), 131%.
